# Source: patent US20160030391A1, “METHODS AND COMPOSITIONS FOR IMPROVING COGNITIVE FUNCTION” (THE JOHNS HOPKINS UNIVERSITY, priority 2013, published 2016)
# What was measured:
# [1] = test system: Memory-impaired aged rats; assay: Radial Arm Maze task, 2-hr delay, acute brivaracetam or seletracetam; type: in vivo, rat; conditions: 0.0625-4 mg/kg i.p. 30-40 min prior to test sessions; repeated measures ANOVA
# Protocol: (§1) The radial arm maze experiments used acute administration of seletracetam (0-4 mg/kg), brivaracetam (0-4 mg/kg), or saline vehicle given by intraperitoneal injection (in a volume of 1 ml/kg) 30-40 min prior to test sessions. In the chronic treatment experiment, memory-impaired aged rats were implanted subcutaneously in the intrascapular region with osmotic mini-pumps (ALZET, Durect Corporation, Cupertino, Calif.) with brivaracetam (2 mg/kg/day) or saline vehicle starting two weeks prior to assessment in the water maze.
# A radial arm maze (RAM) task was used to assess effects of acute drug treatment with seletracetam and brivaracetam. This protocol allowed within-subject assessment across drugs at different doses. The radial maze consisted of eight arms projecting from each side of an octagonal center platform, with a food well located at the distal end of each arm. Plexiglas blocks could be positioned to prevent entry into any arm. Extra-maze cues were provided in the room surrounding the maze and illumination was provided by an overhead light.
# Pre-training, as described in detail in Chappell et al. Neuropharmacology 37: 481-487, (1998), consisted of habituation, standard win-shift training, and win-shift training with delays interposed between information and memory test phases. […]
# [2] = test system: Memory-impaired aged rats; assay: water maze probe test after chronic brivaracetam (osmotic mini-pumps); type: in vivo, rat; conditions: brivaracetam 2 mg/kg/day, 14 days
# Protocol: as §1
# Rats were trained and tested in a novel water maze environment to assess the effect of drug treatment. The water maze used here was housed in a different building and was surrounded by curtains with a novel set of patterns relative to the maze used for initial assessment of cognitive status. The training protocol consisted of 6 trials per day for 2 days to locate a submerged escape platform. On each trial, a rat was released in the maze from one of four equally spaced starting positions around the perimeter of the pool. The starting position varied from trial to trial. […] The rat was then removed from the platform and placed in a holding cage for another 40 s before the next trial. Approximately 24 hr after the last training trial, a probe test in the absence of the escape platform was given to assess spatial memory.
# [3] = test system: ventral tegmental dopamine (DA) neurons of MAM rats; conditions: cited from earlier work
# [4] = test system: MAM-treated rats; conditions: cited from earlier work
# [5] = test system: HPC neurons in saline-treated and MAM-treated animals; conditions: cited from earlier work
smiles,measurement,setting,value
CCC[C@@H]1CC(=O)N([C@@H](CC)C(N)=O)C1 [brivaracetam],"number of errors in the retention phase after the 2-hr delay, effect of dose",[1],significant effect as a function of dose
same,spatial bias for the target quadrant compared to the other quadrants,[2],significant spatial bias
same,time in the target annulus vs vehicle-treated rats,[2],significantly more time
same,time in the target quadrant vs vehicle-treated rats,[2],significantly more time
C#Cc1ccc2c(c1)C(c1ccccc1F)=N[C@H](C)c1c(C(=O)OCC)ncn1-2 [SH-053-2′F—R—CH3],number of spontaneously active DA neurons in the ventral tegmental area (VTA) of MAM rats,[3]; administered systemically and directly infused into the ventral HPC,reduces
same,increased locomotor response to amphetamine in MAM-treated rats,[4]; following the α5GABAAR PAM treatment,reduced
same,cortical-evoked responses of HPC neurons,[5],diminished
CC[C@@H](C(N)=O)N1C[C@H](C=C(F)F)CC1=O [seletracetam],"number of errors in the retention phase after the 2-hr delay, effect of dose",[1],significant effect as a function of dose
"NC1=N[C@H](O)[C@H]2[C@H]3O[C@]4(O)O[C@@H]([C@@H](O)[C@@]2(N1)[C@@H]4O)[C@]3(O)CO [TTX, tetrodotoxin]",elevated DA neuron population activity,"[3]; rat, in vivo",completely reversed
same,augmented amphetamine-induced locomotor behavior,"[4]; rat, in vivo",normalized
